Laboratory results reported in patent publication US11420910B2, “Methods for low temperature fluorine-18 radiolabeling of biomolecules” (KATHOLIEKE UNIVERSITEIT LEUVEN, priority 2014, dated 2022).
Several values for one entry are separate records, joined by “and”; a condition that tells them apart may be missing. Equal entries are not always repeated. Entries after “also recorded” stand apart in the source; their conditions may differ. Values belong to the compound of their own block, whether it stands above or below them.

How the values were obtained:
[1] = Stability tests of Al18F-complexes in different buffers ranging from pH 2 to 8 (room temperature, iTLC-SG); type: physicochemical; conditions: buffers pH 2 to 8, room temperature, 30 and 60 min
Experimental: (§1) 200 μl of the purified Al^18F-L3 solution was added to 1 mL of sodium phosphate buffer (0.1 M, pH 2), sodium phosphate buffer (0.1 M, pH 3), sodium acetate buffer (0.1 M, pH 4), sodium acetate buffer (0.1 M, pH 5), sodium acetate buffer (0.1 M, pH 6), PBS buffer (0.1 M, pH 7) or Tris-HCl buffer (0.1 M, pH 8). These mixtures were incubated at room temperature and analyzed by iTLC-SG at 30 and 60 min after the start of the incubation.
as §1, with “Al^18F-L26” for “Al^18F-L3”

[2] = Stability tests in PBS (0.1 M, pH 7.4) at 37° C., Examples 29 and 33; type: physicochemical; conditions: for % intact tracer: PBS 0.1M pH 7.4, 37° C.; for stability in PBS (in words): 37° C.
Experimental: (§5) These mixtures were incubated at 37° C. and analysed by iTLC-SG at 10, 30, 60, 120, 180 and 240 min after the start of the incubation (N=3). Serum samples were denatured by addition of 50 μl of the serum solution to 50 μl of acetonitrile. The mixture was stirred and centrifuged (1300 g, 3 min). Finally the supernatant was analysed using iTLC-SG.

[3] = Biodistribution of Al18F-complexes and {Al18F}2+ in healthy male NMRI mice; type: in vivo; conditions: for uptake in blood / uptake in bone / uptake in intestines / uptake in kidneys / uptake in liver / uptake in urinary bladder: NMRI mice, tail vein
Experimental: (§2) Quantification of radioactivity during biodistribution studies was performed using an automated gamma counter equipped with a 3-inch NaI(TI) well crystal coupled to a multichannel analyzer, mounted in a sample changer (Perkin Elmer 1480 Wizard 3q). Counts were corrected for background radiation, physical decay and counter dead time.
(§3) The biodistribution of the [Al^18F]-L3 complex and {Al^18F}^2+ was determined in healthy male Naval Medical Research Institute (NMRI) mice (body weight: 30-40 g) at 10 and 60 min post injection (p.i.) (n=4/time point). Mice were injected with the [Al^18F]-L3 complex (about 1 MBq) or {Al^18F}^2+ (5.55 MBq) via a tail vein under anesthesia (2.5% isoflurane in O2 at 1 L/min flow rate) and sacrificed by decapitation at above specified time points. Blood and major organs were collected in tared tubes and weighed. The radioactivity in blood, organs and other body parts was counted using an automated γ-counter. For the calculation of total radioactivity in blood, bone and muscle, masses were assumed to be, respectively, 7, 12 and 40% of the total body mass.^20, 21
as §2, with “Nai(TI)” for “NaI(TI)”
as §3, with “[Al^18F]-L26” for “[Al^18F]-L3”, “(n=3/time point for 10 min p.i. and n=4/time point for 60 min p.i.).” for “(n=4/time point).”, “mass.^20,21” for “mass.^20, 21”

[4] = Stability tests in rat serum at 37° C., Examples 29 and 33
Experimental: as §5

[5] = Stability tests of Al18F-complexes in PBS (0.1 M, pH 7) at 37° C., Example 26; type: physicochemical; conditions: PBS 0.1 M pH 7, 37° C.
Experimental: (§4) 400 μl of each purified [Al^18F]-complex solution was added to 1 mL of PBS and/or 1 mL of rat serum. […] Finally the supernatant was analysed using iTLC-SG.

[6] = Stability tests of Al18F-complexes in rat serum at 37° C., Example 26; type: in vitro ADME
Experimental: as §4

PSMA = molecular target: T1, PSMA (Mus musculus, UniProt O35409); experiment: Biodistribution of PSMA tracers in mice with or without coadministration of 2-PMPA; type: in vivo
T1 construct: organs with reported high expression of PSMA such as kidney; from tissue; host or cells: living mice; kidney, spleen and other organs counted ex vivo
Experimental: The compounds ^68Ga-HBED-CC-PSMA, Al^18F-L6-PSMA, Al^18F-L27-PSMA or Al^18F-NODA-MPAA-PSMA were injected via the tail vain (1-2 MBq) with or without coadministration of 2 mg/kg 2-PMPA. At 10 min or 60 min p.i. (N=4), the animals were sacrificed. Blood and major organs were collected in tarred tubes and weighed. The radioactivity was measured using an automated γ-counter and calculated as % ID and % ID/g.
as §2

T1 sequence (O35409 whole entry): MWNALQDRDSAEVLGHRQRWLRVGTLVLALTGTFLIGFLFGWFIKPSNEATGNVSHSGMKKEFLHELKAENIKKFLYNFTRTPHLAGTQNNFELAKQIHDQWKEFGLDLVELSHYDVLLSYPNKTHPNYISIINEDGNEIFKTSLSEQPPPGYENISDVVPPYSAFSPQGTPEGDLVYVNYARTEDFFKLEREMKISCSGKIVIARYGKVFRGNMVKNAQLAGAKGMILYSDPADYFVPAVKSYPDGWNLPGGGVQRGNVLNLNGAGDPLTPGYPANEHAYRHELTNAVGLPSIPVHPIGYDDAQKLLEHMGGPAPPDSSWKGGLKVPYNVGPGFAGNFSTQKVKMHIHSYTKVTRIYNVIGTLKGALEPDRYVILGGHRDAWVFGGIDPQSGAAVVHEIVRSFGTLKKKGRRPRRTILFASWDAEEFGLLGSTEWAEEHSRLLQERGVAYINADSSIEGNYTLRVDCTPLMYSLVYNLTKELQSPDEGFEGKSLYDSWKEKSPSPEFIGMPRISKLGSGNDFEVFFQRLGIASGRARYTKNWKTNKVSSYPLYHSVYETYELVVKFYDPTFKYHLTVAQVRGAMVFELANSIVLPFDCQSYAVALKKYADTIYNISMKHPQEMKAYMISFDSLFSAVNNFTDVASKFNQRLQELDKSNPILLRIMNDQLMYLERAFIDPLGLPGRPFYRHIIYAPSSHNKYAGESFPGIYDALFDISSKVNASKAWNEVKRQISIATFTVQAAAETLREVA

Compound: O=C1CN2CC(=O)[O][Al-]([18F])([O]1)[O]C(=O)CN(Cc1ccccc1)[C@@H]1CCCC[C@H]12 (racemic) [Al^18F-L26]
stability at different pH (in words) [1]: stable for at least 60 min in the pH range from 2 to 8
% intact tracer ([2]; 10 min): 99.1%
% intact tracer ([2]; 30 min): 98.0%
% intact tracer ([2]; 1 h): 97.8%
% intact tracer ([2]; 2 h): 91.0%
% intact tracer ([2]; 3 h): 95.3%
% intact tracer ([2]; 4 h): 87.3%
stability in PBS (in words) [2]: excellent stability; also recorded: stability comparable to that of the previously reported Al^18F-NODA
uptake in blood ([3]; 10 min p.i.): 2.0 % ID and 1.9 % ID
uptake in bone ([3]; 10 min p.i.): 1.6 % ID
uptake in intestines ([3]; 10 min p.i.): 19.6 % ID
uptake in kidneys ([3]; 10 min p.i.): 4.6 % ID
uptake in liver ([3]; 10 min p.i.): 49.5 % ID
uptake in urinary bladder ([3]; 10 min p.i.): 14.3 % ID
uptake in blood ([3]; 60 min p.i.): 0.1 % ID
uptake in bone ([3]; 60 min p.i.): 1.9 % ID
uptake in intestines ([3]; 60 min p.i.): 62.7 % ID
uptake in kidneys ([3]; 60 min p.i.): 0.2 % ID
uptake in liver ([3]; 60 min p.i.): 8.8 % ID
uptake in urinary bladder ([3]; 60 min p.i.): 21.5 % ID
route of clearance (in words) ([3]; mice, 60 min p.i.): hepatobiliary clearance
in vivo stability judged from bone uptake (in words) ([3]; mice, biodistribution): high stability
stability in rat serum (in words) [4]: excellent stability; also recorded: stability comparable to that of the previously reported Al^18F-NODA
% intact tracer ([4]; 10 min): 97.2%
% intact tracer ([4]; 30 min): 99.0%
% intact tracer ([4]; 1 h): 98±2.3% and 97.3%
% intact tracer ([4]; 2 h): 86.7%
% intact tracer ([4]; 3 h): 91.6%
% intact tracer ([4]; 4 h): 91±2.4% and 91.2%

stability in PBS (in words) [5]: do not seem to be stable
stability in rat serum (in words) [6]: unstable in serum
RCP ([6]; 120 min): 0%
Compound: O=C1CN2CCN(Cc3ccccc3)CC(=O)[O][Al-]([18F])([O]1)[O]C(=O)C2 [Al^18F-L1]

stability in PBS (in words) [5]: do not seem to be stable
RCP ([5]; 120 min): 31%
stability in rat serum (in words) [6]: unstable in serum
RCP ([6]; 120 min): 0%
Compound: O=C1CN(Cc2ccccc2O)CCN2CC(=O)[O][Al-]([18F])([O]1)[O]c1ccccc1C2 (stereo not shown) [Al^18F-L2]

RCP ([5]; 120 min): 85%
RCP ([5]; 240 min): 74%
stability in rat serum (in words) [6]: good stability in rat serum
RCP ([6]; 240 min): 41%
Compound: O=C1CN(Cc2ccccc2)CCN2CC(=O)[O][Al-]([18F])([O]1)[O]c1ccc(F)cc1C2 (stereo not shown) [Al^18F-L4]
stability in PBS (in words) [5]: comparable to that of Al^18F-NODA-benzyl up to 60 minutes

RCP ([5]; 120 min): 78%
RCP ([5]; 240 min): 65%
stability in rat serum (in words) [6]: good stability in rat serum
RCP ([6]; 240 min): 39%
Compound: O=C1CN(Cc2ccccc2)CCN2CC(=O)[O][Al-]([18F])([O]1)[O]c1ccc([N+](=O)[O-])cc1C2 (stereo not shown) [Al^18F-L5]
stability in PBS (in words) [5]: comparable to that of Al^18F-NODA-benzyl up to 60 minutes

stability in PBS (in words) [5]: do not seem to be stable
Compound: O=C1CN(Cc2ccccc2)CCN(Cc2ccccn2)CC(=O)[O][Al]([18F])[O]1 [Al^18F-L7]

stability in PBS (in words) [2]: only moderate stability
Compound: O=C1CN2CC(=O)[O][Al-]([18F])([O]1)[O]C(=O)CN(Cc1ccccc1)C1CC=CCC12 (stereo not shown) [Al^18F-L30]

% intact tracer ([2]; 1 h): 0%
stability in PBS (in words) [2]: unstable
Compound: O=C1CN2CC(=O)[O][Al-]([18F])([O]1)[O]C(=O)CN(Cc1ccccc1)C1CCCC12 (stereo not shown) [Al^18F-L31]

% intact tracer ([2]; 1 h): 0%
stability in PBS (in words) [2]: unstable
Compound: O=C1CN2CC(=O)[O][Al-]([18F])([O]1)[O]C(=O)CN(Cc1ccccc1)c1ccccc12 [Al^18F-L32]

RCP ([5]; 60 min): 99%
RCP ([5]; 120 min): 98%
RCP ([5]; 240 min): 88%
RCP ([6]; 60 min): 99%
RCP ([6]; 120 min): 97%
RCP ([6]; 240 min): 87%
Compound: O=C1CN2CCN(CCN(Cc3ccccc3)CC2)CC(=O)[O][Al]([18F])[O]1 [Al^18F-NODA-benzyl, reference compound]

Compound: O=C([O-])CN(CCN(CC(=O)[O-])Cc1cc(CCC(=O)NCCCCCC(=O)NCCCC[C@H](NC(=O)N[C@@H](CCC(=O)O)C(=O)O)C(=O)O)ccc1[O-])Cc1cc(CCC(=O)O)ccc1[O-].[68Ga+3].[OH3+] [^68Ga-HBED-CC-PSMA]
affinity for the PSMA receptor indicated by spleen and kidney uptake (in words) (PSMA): high affinity for the PSMA receptor
in vivo stability judged from bone uptake (in words) (PSMA): high in vivo stability
kidney and spleen retention when 2-PMPA was coinjected (in words) (PSMA; 60 min p.i., 2 mg/kg 2-PMPA): nearly completely blocked
retention in kidney (PSMA; 60 min p.i., without 2-PMPA): 269.90±47.23 % ID/g
retention in spleen (PSMA; 60 min p.i., without 2-PMPA): 2.72±0.42 % ID/g
bone uptake (PSMA; tail vein, time point not stated): 0.39±0.09 % ID/g

Compound: [18F][Al+2] [{Al^18F}^2+, reference compound]
uptake in blood ([3]; 10 min p.i.): 5.0 % ID
uptake in bone ([3]; 10 min p.i.): 60 % ID
uptake in intestines ([3]; 10 min p.i.): 4.22 % ID
uptake in kidneys ([3]; 10 min p.i.): 2.2 % ID
uptake in liver ([3]; 10 min p.i.): 3.71 % ID
uptake in urinary bladder ([3]; 10 min p.i.): 20.7 % ID
uptake in blood ([3]; 60 min p.i.): 0.6 % ID
uptake in bone ([3]; 60 min p.i.): 83 % ID and 83.3 % ID
uptake in intestines ([3]; 60 min p.i.): 1.91 % ID
uptake in kidneys ([3]; 60 min p.i.): 0.5 % ID
uptake in liver ([3]; 60 min p.i.): 0.55 % ID
uptake in urinary bladder ([3]; 60 min p.i.): 30.6 % ID
